Experimental data taken from US6787650B1, “Urea compounds, process for producing the same and use thereof” (Takeda Chemical Industries, Ltd., priority 1999, dated 2004).
Structures can show the parent of a compound that is named as a salt.

How the values were obtained:
human CCR5 = biological target: T1, human CCR5 (Homo sapiens, UniProt P51681); test: Inhibition of [125I]-RANTES binding to CHO/CCR5 cells (CCR5 antagonistic activity); conditions: 1.0 μM test compound, 100 pM [125I]-RANTES, room temperature, 40 minutes; for inhibition at 1 µM: read-out: Inhibition Rate (%) at 1.0 μM
T1 construct: expressed in transfected cells
Description: Cloning of CCR5 gene was carried out by PCR (polymerase chain reaction) from human spleen cDNA. With using 0.5 ng of spleen cDNA (Toyobo, QUICK-Clone cDNA) as a template, PCR was performed in DNA Thermal Cycler 480 (Perkin-Elmer) (reaction conditions: 30 cycles of 95° C. for 1 minute, 60° C. for 1 minute, and 75° C. for 5 minutes) by adding primer set, 5′-[…]-3′ (25 pmol) and 5′-[…]-3′ (25 pmol), which were designed referring to nucleotide sequence of CCR5 gene reported by Samson et al. (Biochemistry, 35 (11), 3362-3367 (1996)) and by using TaKaRa EX Taq (Takara Shuzo). The resultant PCR product was subjected to agarose gel electrophoresis to collect about 1.0 kb DNA fragment, which was subjected to Original TA Cloning Kit (Funakoshi) to carry out cloning of CCR5 gene.
The plasmid obtained in the above (1) was digested with restriction enzymes XbaI (Takara Shuzo) and BamHI (Takara Shuzo) and subjected to agarose gel electrophoresis to collect about 1.0 kb DNA fragment. The DNA fragment was mixed with plasmid pcDNA3.1 (Funakoshi) for expression in animal cells, said plasmid being digested with XbaI and BamHI, and they were ligated with DNA Ligation Kit Ver.2 (Takara Shuzo). The resulting plasmid was subjected to transformation of competent cell of E. coli JM109 (Takara Shuzo) to give plasmid pCKR5.
CHO-K1 cells were grown in 750 ml of tissue culture flask (Becton Dickinson) using Ham's F12 medium (Nihon Pharmaceutical) containing 10% fetal calf serum (Life Tech Oriental) and took off with 0.5 g/L trypsin-0.2 g/L EDTA (Life Tech Oriental). The cells were washed with PBS (Life Tech Oriental), centrifuged (1000 rpm, 5 minutes), and suspended in PBS. With using Gene Pulser (Bio-Rad Laboratories), DNA was introduced into the cells under the conditions shown below. That is, to the cuvette having 0.4 cm gap were added 8×10^6 cells and 10 μg of plasmid pCKR5 for expression of human CCR5, and electroporation was carried out under 0.25 kV of voltage and 960 μF of capacitance. The cells were transferred into Ham's F12 medium containing 10% fetal calf serum, and cultivated for 24 hours. The cells were again took off and centrifuged, and suspended in Ham's F12 medium containing 10% fetal calf serum and 500 μg/ml of geneticin (Life Tech Oriental). The suspension was diluted to give 10^4 cells/ml of the suspension, which was inoculated on 96 well plate (Becton Dickinson) to give geneticin resistant cells.
Then, the resulting geneticin resistant cells were cultivated in 96 well plate (Becton Dickinson), and cells expressing CCR5 were selected from the geneticin resistant cells. That is, in an assay buffer (Ham's F12 medium containing 0.5% BSA and 20 mM HEPES (Wako Pure Chemical, pH 7.2) to which was added 200 pM of [^125I]-RANTES (Amersham) as a ligand, binding reaction was carried out at room temperature for 40 minutes, and the buffer was washed with ice-cooled PBS. To the buffer was added 50 μl/well of 1M NaOH, and the mixture was stirred. Radioactivity was determined with γ-counter to select CHO/CCR5 cells which specifically bound with the ligand.
(4) Evaluation of Test Compounds Based on CCR5 Antagonistic Activity
The CHO/CCR5 were inoculated on 96 well microplate (5×10^4 cells/well) and cultivated for 24 hours. The medium was removed by means of suction, and to each well was added assay buffer containing Test Compound (1 μl) and then 100 pM of [^125I]-RANTES (Amersham) as a ligand. The reaction was carried out at room temperature for 40 minutes, and assay buffer was removed by means of suction. Each well was washed twice with cooled PBS, and 200 μl of Microscinti-20 (Packard Instrument, Inc.) was added to each well. Radioactivity was determined with Top-Count Micro Scintillation Counter (Packard Instrument, Inc.).
According to the method described above, the inhibition rate of the test compounds for CCR5 binding was determined.

HIV-1 Ba-L = test: Inhibitory effect on HIV-1 infection to MAGI-CCR5 cell; format: cell-based; conditions: Human immunodeficiency virus 1, BAL, 48 h; final concentration 0.16 μM; MAGI-CCR5 cells; 300PFU HIV-1 Ba-L; 37° C., 2 days; blue cells counted
Description: (5) Inhibitory Effect on HIV-1 Infection to MAGI-CCR5 Cell
The plasmid where β-galactosidase gene was ligated to the downstream of HIV-1 LTR was introduced into CD4 positive HeLa cell, to which human CCR^5 was further introduced to obtain transformant MAGI-CCR5. By using said transformant MAGI-CCR5, the degree of HIV-1 infection was calculated from β-galactosidase activity (blue color due to decomposition of 5-bromo-4-chloro-3-indolyl-β-D-galactopyranoside). Specifically, MAGI-CCR5 cells were suspended in DMEM medium containing 10% serum to prepare 5×10^4 cells/ml suspension. To each well of 96 well plate was inoculated 200 μl of the suspension, and the cells were cultivated at 37° C. overnight. The medium was removed by means of suction, and to the residue was added 100 μl of the above medium containing 0.32 μM of Test Compound and 100 μl of the above medium containing 300PFU of HIV-1 Ba-L cells. The final concentration of the test compound was 0.16 μM. The cells were cultivated at 37° C. for 2 days. The medium was removed by means of suction. To the residue was added 200 μl of cell fixative (PBS containing 1% formaldehyde and 0.2% glutaraldehyde), and the mixture was allowed to stand at room temperature for 5 minutes and washed twice with PBS. […] The number of blue cells was counted by microscope and defined as the number of cells infected with HIV-1.

T1 sequence (P51681 whole entry): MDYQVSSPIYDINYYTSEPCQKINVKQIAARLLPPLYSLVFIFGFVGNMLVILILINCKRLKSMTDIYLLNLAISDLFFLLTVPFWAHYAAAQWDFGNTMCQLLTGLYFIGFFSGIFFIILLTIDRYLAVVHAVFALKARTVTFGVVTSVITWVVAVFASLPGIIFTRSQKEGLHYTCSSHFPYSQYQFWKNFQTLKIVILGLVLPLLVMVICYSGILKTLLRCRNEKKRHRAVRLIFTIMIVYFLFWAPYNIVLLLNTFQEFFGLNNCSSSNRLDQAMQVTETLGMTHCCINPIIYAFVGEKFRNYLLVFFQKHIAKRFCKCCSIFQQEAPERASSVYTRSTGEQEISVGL

Row | Compound | inhibition at 1 µM (human CCR5) [%] | melting point [°C] | other results
1 | O=C(Nc1ccccc1)N(CCCN1CCC(Cc2ccccc2)CC1)c1ccccc1 [Example 1, N-[3-(4-Benzyl-1-piperidinyl)propyl]-N-phenyl-N′-phenylurea hydrochloride] | 96 |  | 
2 | O=C(Nc1ccc(Cl)cc1)N(CCCN1CCC(Cc2ccccc2)CC1)c1ccccc1 [Example 2, N-[3-(4-Benzyl-1-piperidinyl)propyl]-N′-(4-chlorophenyl)-N-phenylurea] |  | 101 to 103 | 
3 | Cc1ccc(N(CCCN2CCC(Cc3ccccc3)CC2)C(=O)Nc2ccc(Cl)cc2)cc1 [Example 10, N-[3-(4-Benzyl-1-piperidinyl)propyl]-N′-(4-chlorophenyl)-N-(4-methylphenyl)urea hydrochloride] | 100 |  | 
4 | O=C(Nc1cccc2ccccc12)N(CCCN1CCC(Cc2ccccc2)CC1)c1ccccc1 [Example 13, N-[3-(4-Benzyl-1-piperidinyl)propyl]-N′-(1-naphthyl)-N-phenylurea] | 67 | 124 to 127 | 
5 | CS(=O)(=O)c1ccc(CC2CCN(CCCN(C(=O)Nc3ccc(Cl)cc3)c3ccccc3)CC2)cc1.Cl [Example 72, N′-(4-Chlorophenyl)-N-(3-{4-[4-(4-methylsulfonyl)benzyl]-1-piperidinyl}propyl)-N-phenylurea hydrochloride] |  |  | Inhibition Rate (%) at 1.0 μM (human CCR5): 94%
6 | CCCNC(=O)N(CCCN1CCC(Cc2ccccc2)CC1)c1ccccc1 [Example 7, N-[3-(4-Benzyl-1-piperidinyl)propyl]-N-phenyl-N′-propylurea] | 92 |  | 
7 | O=C(Nc1ccc(Cl)cc1)N(CCCN1CCC(Cc2ccc(F)cc2)CC1)c1ccc(Cl)c(Cl)c1 [Example 12, N′-(4-Chlorophenyl)-N-(3,4-dichlorophenyl)-N-{3-[4-(4-fluorobenzyl)-1-piperidinyl]propyl}urea] | 92 |  | 
8 | O=C(Nc1ccc(Cl)cc1)N(CCCN1CCC(Cc2ccccc2)CC1)c1ccccc1 [Example 76, N-[3-(4-Benzyl-1-piperidinyl)propyl]-N′-(4-chlorophenyl)-N-phenylurea hydrochloride] |  |  | inhibition at 0.16 µM (HIV-1 Ba-L): 98%
9 | O=C(NC1CCCCC1)N(CCCN1CCC(Cc2ccccc2)CC1)c1ccccc1 [Example 6, N-[3-(4-Benzyl-1-piperidinyl)propyl]-N′-cyclohexyl-N-phenylurea] |  | 106 to 108 | 
10 | O=C(Nc1ccc(Cl)cc1)N(CCCN1CCC(Cc2ccc(S(=O)(=O)N3CCOCC3)cc2)CC1)c1ccccc1 [Example 71, N′-(4-Chlorophenyl)-N-(3-{4-[4-(4-morpholinylsulfonyl)benzyl]-1-piperidinyl}propyl)-N-phenylurea hydrochloride] | 98 |  | 
